From patent US7202261B2, “Calcilytic compounds” (NPS Pharmaceuticals, Inc., priority 1996, dated 2007)
Where a name gives a salt, the structure may show the parent alone.

Molecular target: T1, human calcium receptor (Homo sapiens, UniProt P41180)
T1 construct: expressed in transfected cells
T1 sequence (P41180 20-1078): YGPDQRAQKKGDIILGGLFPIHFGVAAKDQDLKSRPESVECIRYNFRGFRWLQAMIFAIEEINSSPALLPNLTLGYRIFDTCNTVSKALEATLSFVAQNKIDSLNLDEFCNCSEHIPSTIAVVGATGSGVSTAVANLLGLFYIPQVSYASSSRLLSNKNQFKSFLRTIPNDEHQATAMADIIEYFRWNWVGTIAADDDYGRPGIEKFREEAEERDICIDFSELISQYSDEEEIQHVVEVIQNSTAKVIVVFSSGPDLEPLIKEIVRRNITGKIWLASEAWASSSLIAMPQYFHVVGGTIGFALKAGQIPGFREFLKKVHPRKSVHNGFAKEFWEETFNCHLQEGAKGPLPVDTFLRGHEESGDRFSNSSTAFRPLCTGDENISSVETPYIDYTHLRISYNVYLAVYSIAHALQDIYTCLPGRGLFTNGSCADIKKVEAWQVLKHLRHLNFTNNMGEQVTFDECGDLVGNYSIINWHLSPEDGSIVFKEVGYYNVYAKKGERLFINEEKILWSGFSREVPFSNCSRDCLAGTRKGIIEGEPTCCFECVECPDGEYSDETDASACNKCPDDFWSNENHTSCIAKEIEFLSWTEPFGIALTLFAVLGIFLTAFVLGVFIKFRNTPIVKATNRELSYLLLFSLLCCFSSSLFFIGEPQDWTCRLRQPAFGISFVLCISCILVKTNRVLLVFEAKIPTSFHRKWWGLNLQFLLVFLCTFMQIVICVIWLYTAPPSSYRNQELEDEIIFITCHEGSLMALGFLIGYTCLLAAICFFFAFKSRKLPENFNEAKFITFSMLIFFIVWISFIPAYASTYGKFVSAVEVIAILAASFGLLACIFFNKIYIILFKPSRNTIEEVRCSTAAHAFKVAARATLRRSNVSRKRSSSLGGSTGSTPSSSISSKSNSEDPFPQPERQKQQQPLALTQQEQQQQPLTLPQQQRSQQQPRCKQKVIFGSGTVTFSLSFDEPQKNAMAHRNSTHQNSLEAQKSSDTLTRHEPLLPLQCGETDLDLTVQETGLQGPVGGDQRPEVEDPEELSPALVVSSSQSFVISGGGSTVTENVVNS
Test: Calcium Receptor Inhibitor Assay
Assay type: cell-based
Conditions: not given
Procedure: This example illustrates the use of the Calcium Receptor Inhibitor Assay. […] Res. 10 Suppl. […] Intracellular Ca^2+ was measured using fluo-3, a fluorescent calcium indicator.
The procedure was as follows:
1. Cells were maintained in T-150 flasks in selection media (DMEM supplemented with 10% fetal bovine serum and 200 μg/mL hygromycin B), under 5% CO2:95% air at 37° C. and were grown up to 90% confluency.
2. The medium was decanted and the cell monolayer was washed twice with phosphate-buffered saline (PBS) kept at 37° C. After the second wash, 6 mL of 0.02% EDTA in PBS was added and incubated for 4 minutes at 37° C. Following the incubation, cells were dispersed by gentle agitation.
3. Cells from 2 or 3 flasks were pooled and pelleted (100×g). The cellular pellet was resuspended in […] of SPF-PCB+ and pelleted again by centrifugation. This washing was done twice.
SPF-PCB was made up and stored at 4° C. On the day of use, SPF-PCB was supplemented with 1 mg/mL of D-glucose and 1 mM CaCl2 and then split into two fractions. To one fraction, bovine serum albumin (BSA; fraction V, ICN) was added at 5 mg/mL (SPF-PCB+). This buffer was used for washing, loading and maintaining the cells. The BSA-free fraction was used for diluting the cells in the cuvette for measurements of fluorescence.
5. Following the incubation period, the cells were pelleted by centrifugation. The resulting pellet was washed with SPF-PCB+. After this washing, cells were resuspended in SPF-PCB+ at a density of 1–2×10^6 cells/mL.
6. For recording fluorescent signals, 300 μL of cell suspension were diluted in 1.2 mL of SPF buffer containing 1 mM CaCl2 and 1 mg/mL of D-glucose. Measurements of fluorescence were performed at 37° C. with constant stirring using a spectrofluorimeter. […] To calibrate fluorescence signals, digitonin (5 mg/mL in ethanol) was added to obtain Fmax, and the apparent Fmin was determined by adding Tris-EGTA (2.5 M Tris-Base, 0.3 M EGTA).
7. To determine the potential calcilytic activity of test compounds, cells were incubated with test compound (or vehicle as a control) for 90 seconds before increasing the concentration of extracellular Ca^2+ from 1 to 2 mM. Calcilytic compounds were detected by their ability to block, in a concentration-dependent manner, increases in the concentration of intracellular Ca^2+ elicited by extracellular Ca^2+.

Structure (SMILES)	IC50 [µM]
COc1ccc(CC(C)(C)NCC(O)CCc2cccc(Cl)c2Cl)cc1 (racemic) [Compound 163]	< 1
COc1ccc(CC(C)(C)NCC(O)CCCC[N+](=O)[O-])cc1 (racemic) [Compound 164, (R/S)-1-nitro-5-hydroxy-6-[1,1-dimethyl-2-(4-methoxyphenyl)]hexane]	< 50
COc1ccc(CC(C)(C)NCCCc2ccccc2)cc1 [Compound 22, N-(3-phenylpropyl)-1,1-dimethyl-2(4-methoxyphenyl)ethylamine]	> 50
COc1ccc(CC(C)(C)NCCCCc2ccccc2)cc1 [Compound 24, N-(4-phenylbutyl)-1,1-dimethyl-2-(4-methoxyphenyl)ethylamine]	> 50
COc1ccc(CC(C)(C)NCC(O)COC(C)(C)C)cc1 (stereo not shown) [Compound 25, N-(2-Hydroxy-3-t-butoxypropyl)-1,1-dimethyl-2-(4-methoxyphenyl)ethylamine]	< 50
CCCCOCC(O)CNC(C)(C)Cc1ccc(OC)cc1 (stereo not shown) [Compound 26, N-(2-Hydroxy-3-butoxypropyl)-1,1-dimethyl-2-(4-methoxyphenyl)ethylamine]	< 10
COc1ccc(CC(C)(C)NCC(O)COC(C)C)cc1 (stereo not shown) [Compound 27, N-(2-Hydroxy-3-isoproproxypropyl)-1,1-dimethyl-2-(4-methoxyphenyl)ethylamine]	< 10
CCCCC(CC)COCC(O)CNC(C)(C)Cc1ccc(OC)cc1 (stereo not shown) [Compound 28, N-[2-Hydroxy-3-(2-ethyl)hexanoxypropyl]-1,1-dimethyl-2-(4-methoxyphenyl)ethylamine]	< 1
C=CCOCC(O)CNC(C)(C)Cc1ccc(OC)cc1 (stereo not shown) [Compound 29, N-(2-Hydroxy-3-allyloxypropyl)-1,1-dimethyl-2-(4-methoxyphenyl)ethylamine]	< 50
COc1ccc(CC(C)(C)NCc2ccccc2)cc1 [Compound 34, N-(Benzyl)-1,1-dimethyl-2-(4-methoxyphenyl)ethylamine]	> 50
COc1ccc(CC(C)(C)NCC(O)Cc2ccccc2)cc1 (stereo not shown) [Compound 37, N-(2-Hydroxy-3-phenylpropyl)-1,1-dimethyl-2-(4-methoxyphenyl)ethylamine Hydrochloride]	< 10

Same assay, conditions: HEK 293 4.0–7 cells stably expressing the human calcium receptor; fluo-3; read-out: IC50 for blocking increases of intracellular Ca2+ elicited by extracellular Ca2+

Structure (SMILES)	IC50 [µM]
COc1ccc(CC(C)(C)NC[C@@H](O)COc2ccc(C(C)(C)C)cc2)cc1 (racemic) [Compound 20, (R) and (S)—N-[2-Hydroxy-3-(4-t-butylphenoxy)propyl]-1,1-dimethyl-2-(4-methoxyphenyl)ethylamine Hydrochloride]	< 1
COc1ccc(CC(C)(C)NCC(O)CCc2cccc3ccccc23)cc1 (racemic) [Compound 162, (R/S)-1-[[2,2-dimethyl-(4′methoxy)phenethyl]]amino-2-hydroxy-4(1′-naphthyl)-butane]	< 10
COc1ccc(CC(C)(C)NC[C@@H](O)COc2cccc3ccccc23)cc1 (single isomer, unassigned) [Compound 105, Hydrochloride]	< 1
COc1ccc(CC(C)(C)NC[C@H](O)COc2cccc3ccccc23)cc1 (single isomer, unassigned) [Compound 106, Hydrochloride]	< 1
COc1ccc(CC(C)(C)NCC(O)COc2cccc3[nH]c(O)nc23)cc1 (stereo not shown) [Compound 1]	< 50
CC(C)(Cc1ccc(F)cc1)NCC(O)COc1cccc2ccccc12 (stereo not shown) [Compound 2, N-[2-Hydroxy-3-(1-naphthoxy)propyl]-1,1-dimethyl-2-(4-fluorophenyl)ethylamine Hydrochloride]	< 10
COc1ccc(CC(C)(C)NCC(O)COc2ccccc2)cc1 (stereo not shown) [Compound 3, N-(2-Hydroxy-3-phenoxypropyl)-1,1-dimethyl-2-(4-methoxyphenyl)ethylamine Hydrochloride]	< 10
COc1ccc(CC(C)(C)NCC(O)COc2ccc(Cl)cc2)cc1 (stereo not shown) [Compound 5, N-[2-Hydroxy-3-(4-chlorophenoxy)propyl]-1,1-dimethyl-2-(4-methoxyphenylethylamine Hydrochloride]	< 1
COc1ccc(CC(C)(C)NCC(O)COc2ccc(C(C)(C)C)cc2)cc1 (stereo not shown) [Compound 6, N-[2-Hydroxy-3-(4-t-butylphenoxy)propyl]-1,1-dimethyl-2-(4-methoxyphenyl)ethylamine Hydrochloride]	< 1
COc1ccc(CC(C)(C)NCC(O)COc2ccc(OC)cc2)cc1 (stereo not shown) [Compound 7, N-[2-Hydroxy-3-(4-methoxyphenoxy)propyl]-1,1-dimethyl-2-(4-methoxyphenyl)ethylamine Hydrochloride]	< 10
COc1ccc(CC(C)(C)NCC(O)COc2ccccc2C)cc1 (stereo not shown) [Compound 8, N-[2-Hydroxy-3-(2-methylphenoxy)propyl]-1,1-dimethyl-2-(4-methoxyphenyl)ethylamine Hydrochloride]	< 10
COc1ccc(CC(C)(C)NCC(O)COc2cccc3[nH]c(C(N)=O)cc23)cc1 (stereo not shown) [Compound 9, N-[2-Hydroxy-3-(4-(2-carboxamido)indoloxy)propyl]-1,1-dimethyl-2-(4-methoxyphenyl)ethylamine Hydrochloride]	< 50
COc1ccc(CC(C)(C)NCCCOc2ccccc2)cc1 [Compound 17, N-(3-Phenoxypropyl)-1,1-dimethyl-2-(4-methoxyphenyl)ethylamine Hydrochloride]	< 50
COc1ccc(CC(C)(C)NCC(O)COc2cccc3ccccc23)cc1 (stereo not shown) [Compound 19, N-[2-Hydroxy-3-(1-naphthoxy)propyl]-1,1-dimethyl-2-(4-methoxyphenyl)ethylamine Hydrochloride]	< 1
COc1ccc(CC(C)(C)NCC(O)COc2ccc3ccccc3c2)cc1 (stereo not shown) [Compound 35, N-[2-Hydroxy-3-(2-naphthoxy)propyl]-1,1-dimethyl-2-(4-methoxyphenyl)ethylamine Hydrochloride]	< 10
COc1ccc(CC(C)(C)NCCCCOc2ccccc2)cc1 [Compound 36, N-(4-phenoxybutyl)-1,1-dimethyl-2-(4-methoxyphenyl)ethylamine]	> 50
COc1ccc(CC(C)(C)NCC(O)COc2cccc(F)c2)cc1 (stereo not shown) [Compound 39, N-[2-Hydroxy-3-(3-fluorophenoxy)propyl]-1,1-dimethyl-2-(4-methoxyphenyl)ethylamine Hydrochloride]	< 10
COc1ccc(CC(C)(C)NCC(O)COc2ccccc2Cl)cc1 (stereo not shown) [Compound 40, N-[2-Hydroxy-3-(2-chlorophenoxy)propyl]-1,1-dimethyl-2-(4-methoxyphenyl)ethylamine Hydrochloride]	< 1
COc1ccc(CC(C)(C)NCC(O)COc2ccccc2F)cc1 (stereo not shown) [Compound 41, N-[2-Hydroxy-3-(2-fluorophenoxy)propyl]-1.1-dimethyl-2-(4-methoxyphenyl)ethylamine Hydrochloride]	< 10
COc1ccc(CC(C)(C)NCCCOc2cccc3ccccc23)cc1 [Compound 42, N-(3-(1-napthoxy)propyl)-1,1-dimethyl-2-(4-methoxyphenyl)]	< 50
